# Reference: PubChem BioAssay AID489035 (Sanford-Burnham Center for Chemical Genomics, 2010)
# Active and inactive are the calls of the source. The rule behind the calls is not given here.
# Tested on: Jurkat NF-kB reporter, TCR-induced, luciferase luminescence
# Assay: inhibitors of TCR-driven NF-kB activation, dose response, Jurkat cells, luminescence (AID 489035)
row,Structure (SMILES),IC50
1,CCN(CC)c1ccc(/C=N/NC(=O)c2nnn(-c3nonc3N)c2C(C)C)c(O)c1,2.02 µM
2,COc1cc2c(cc1O)CC[C@@H]1[C@@H]2CC[C@]2(C)[C@@H](O)CC[C@@H]12,> 80 µM (inactive)
3,O=C(c1ccccc1-c1ccccc1)N1CCN(c2ccccn2)CC1,> 80 µM (inactive)
4,CCOc1ccccc1C(=O)Nc1ccc2nc(N3CCN(c4ncccn4)CC3)cc(C)c2c1,4.28 µM
5,CC(=O)O[C@@]12CO[C@@H]1C[C@H](O)[C@@]1(C)C(=O)[C@H](O)C3=C(C)[C@@H](OC(=O)[C@H](O)[C@@H](NC(=O)c4ccccc4)c4ccccc4)C[C@@](O)([C@@H](OC(=O)c4ccccc4)C12)C3(C)C (some centres not stated),39.4 µM (inactive)
6,CCC(=O)N1c2ccc(S(=O)(=O)N3CCN(c4ccc([N+](=O)[O-])cc4)CC3)cc2CC1C (configuration not stated),> 80 µM (inactive)
7,O=S1(=O)C=C(Sc2nc3ccccc3s2)c2ccccc21,0.26 µM
8,Nc1ncn([C@@H]2O[C@H](CO)[C@@H](O)[C@H]2O)c(=O)n1,10.8 µM
9,O=C1c2c(O)ccc(O)c2C(=O)c2c(NCCNCCO)ccc(NCCNCCO)c21,2.23 µM
10,CN=c1scc(-c2cccs2)n1/N=C/c1ccccc1O,2.09 µM
11,C=C(C)COc1ccc(-c2[nH]ncc2-c2ccc(OC)c(OC)c2)c(O)c1,13.6 µM
12,Cc1ccc(C(=O)c2cc([N+](=O)[O-])ccc2N2CCCCC2)cc1C,37 µM (inactive)
13,CCCC1=Nc2cc(C(=O)NCCCOCC)ccc2Sc2ccccc21,24 µM (inactive)
14,COc1ccc(COC(=O)c2cc([N+](=O)[O-])ccc2N2CCOCC2)cc1F,> 80 µM (inactive)
15,O=C(N/N=C/c1ccccc1Cl)c1[nH]c2ccc(Br)cc2c1-c1ccccc1,6.27 µM
16,COc1ccc(C2=Nn3c([n+](C)c4ccccc43)SC2)cc1,> 80 µM (inactive)
17,C/C(=N\NC(=O)c1ccc(Cl)c(Cl)c1)c1ccccn1,1.3 µM
18,Cn1c2c(c(=O)n(C)c1=O)C(C(F)(F)F)(C(F)(F)F)N=C(c1ccc(Cl)cc1)N2,> 80 µM (inactive)
19,COc1cccc(-c2cc(=O)c3cc(NC(=O)c4ccccc4)ccc3[nH]2)c1,> 80 µM (inactive)
20,CCOC(=O)c1[nH]c(C)c(C(=O)Nc2cc(Cl)ccc2C)c1C,> 80 µM (inactive)
21,O=C(Nc1cccc2ccccc12)OC1C=CS(=O)(=O)C1 (configuration not stated),1.06 µM
22,Cc1c(C)c2cccnc2c2ncccc12,2.02 µM
23,CCc1ccc2nc(SCC(=O)Nc3ccccc3N3CCOCC3)c(C#N)cc2c1,32.4 µM (inactive)
24,Cc1ccc(-c2cc3c(N=O)c4ccccc4c-3n[nH]2)cc1,1.65 µM
25,CCOc1cc(C(=O)N/N=C/C(Br)=C/c2ccccc2)cc(OCC)c1OCC,> 80 µM (inactive)

row,Structure (SMILES),IC50
1,COc1ccccc1N1CCN(C(=O)c2cc(=O)c3cc(C)cc(C)c3o2)CC1,2.79 µM
2,Oc1ccc(Nc2nc3ccccc3nc2Nc2ccc(O)cc2)cc1,2.09 µM
3,COc1ccc(C(=O)/C(C#N)=N/Nc2ccc([N+](=O)[O-])cc2)cc1,9.52 µM
4,COc1ccccc1NC(=O)c1cnc(Nc2ccccc2OC)c2ccccc12,> 80 µM (inactive)
5,Cc1cc(C)cc(NC(=O)c2ccc([N+](=O)[O-])o2)c1,0.95 µM
6,c1cc2c(cc1C1=NNC(=NC3CC3)SC1)OCCO2,0.26 µM
7,CCCCCCCCCCCCCCCC[n+]1ccc(C(N)=O)cc1,1.49 µM
8,Cc1ccc(C)c(CSc2nc3[nH]ncc3c(=O)[nH]2)c1,39.2 µM (inactive)
9,CCOc1ccc2c(c1)OC(c1ccc(OC)cc1)(C(F)(F)F)NC2=O (configuration not stated),> 80 µM (inactive)
10,NS(=O)(=O)c1ccc(Sc2nc3ccccc3s2)c([N+](=O)[O-])c1,0.79 µM
11,Cc1ccc2c(c1)COc1c3ccc(C(=O)O)cc3nn1-2,> 80 µM (inactive)
12,CC(C)CCOc1cccc(OCC(=O)Nc2ccncc2)c1,> 80 µM (inactive)
13,COc1cccc(OC)c1C1=NCC(=O)Nc2c1oc1ccc(Br)cc21,> 80 µM (inactive)
14,Cc1c(C(=O)OCC(C)C)[nH]c2c1C(=O)CC(c1cccs1)C2 (configuration not stated),> 80 µM (inactive)
15,c1ccc(-c2noc(-c3ccc4c(c3)OCO4)n2)nc1,0.55 µM
16,COc1ccc(C(C(=O)NC2CCCCC2)N(C(=O)CCl)c2ccc(C)cc2)cc1 (configuration not stated),0.33 µM
17,COc1cc(C(=O)N2CCN(c3cc(Cl)ccc3Cl)CC2)cc(OC)c1OC,24.5 µM (inactive)
18,COc1ccc2c(c1)C(=O)N1[C@H]3c4cc(Br)ccc4OC[C@@H]3[C@H](c3ccccc3)[C@]1(C)C(=O)N2,> 80 µM (inactive)
19,CCN(CC)c1ccc(NC(=O)c2cc(OC)cc(OC)c2)c(C)c1,> 80 µM (inactive)
20,Cc1cccc(N=Nc2ccc(O)c3ncccc23)c1,6.14 µM
21,COc1cc(-c2noc(C)c2/C=C/c2ccc(OC(C)=O)cc2)cc(OC)c1OC,31.5 µM (inactive)
22,Oc1ccc2ccccc2c1N=Nc1ccccn1,1.96 µM
23,COc1ccc(CCNc2cc(N3CCN(C(=O)c4ccccc4F)CC3)ccc2[N+](=O)[O-])cc1OC,> 80 µM (inactive)
24,CCOC(=O)c1[nH]c2c(c1C)C(=O)CC(c1ccc(F)cc1)C2 (configuration not stated),> 80 µM (inactive)
25,c1ccc(-c2cccc(-c3ccccn3)n2)nc1,1.61 µM

row,Structure (SMILES),IC50
1,Cc1ccc2[nH]c(-c3cccc(F)c3)cc(=O)c2c1,> 80 µM (inactive)
2,Cc1cc(NC(=O)COC(=O)c2ccc(S(=O)(=O)N3CCCc4ccccc43)cc2)no1,> 80 µM (inactive)
3,CCOc1ccccc1NS(=O)(=O)c1ccc(-c2cnc(C3CC3)o2)cc1,6.3 µM
4,CCN(c1ccccc1)S(=O)(=O)c1ccc(C(=O)NC2CCN(Cc3ccccc3)CC2)cc1,33 µM (inactive)
5,O=C(c1ccc(Br)cc1)c1cc([N+](=O)[O-])ccc1N1CCOCC1,64.3 µM (inactive)
6,CCc1cc(C(=O)NC2CCCc3c2cnn3-c2cccc(C)c2C)n(C)n1 (configuration not stated),> 80 µM (inactive)
7,O=C(Nc1ccncc1)C1CCCN(S(=O)(=O)c2cccc3cccnc23)C1 (configuration not stated),> 80 µM (inactive)
8,CCOc1ccc(S(=O)(=O)NCc2ccccn2)cc1NC(=O)c1ccccc1F,> 80 µM (inactive)
9,Cn1nc(CC(=O)Nc2ccc(N3CCN(C(=O)OC(C)(C)C)CC3)cc2)c2ccccc2c1=O,> 80 µM (inactive)
10,O=C(Nc1ccc(N2CCCCC2)cc1)c1ccccn1,0.46 µM
11,CC(=O)c1ccc(N2CCN(S(=O)(=O)c3ccc4c(c3)CC(C)N4C(=O)C3CC3)CC2)cc1 (configuration not stated),> 80 µM (inactive)
12,CCOC(=O)C(C)Oc1cccc2c(=O)n(CC(=O)NCc3ccc(F)cc3)ccc12 (configuration not stated),> 80 µM (inactive)
13,COc1ccc(OCC(=O)Nc2ccccc2N2CCCCC2)cc1,> 80 µM (inactive)
14,COc1cc(-c2noc(C)c2-c2ccc3[nH]ccc3c2)cc(OC)c1OC,25.3 µM (inactive)
15,C=CC[C@@H](CC/C=C/C=C/CC/C=C\[C@@H]1CSC([C@@H]2C[C@@H]2C)=N1)OC,50.8 µM (inactive)
16,COc1ccccc1N1CCN(C(=O)c2ccc(-c3ccc(Cl)cc3)o2)CC1,34.6 µM (inactive)
17,CCCC[C@@H](C)C[C@@H](C)C(=O)N(C)[C@@H](CC(C)C)C(=O)N[C@H](C(=O)N(C)[C@H](C(=O)N1C[C@@H](O)C[C@H]1C(=O)N1C(=O)C=C[C@@H]1C)C(C)C)C(C)OC(C)=O (some centres not stated),4.87 µM
18,CCCCCCCCCCn1ccc(=N)cc1,3.84 µM
19,COc1cc(-c2noc(C)c2/C=C/c2cccc([N+](=O)[O-])c2)cc(OC)c1OC,> 80 µM (inactive)
20,O=C(CSc1nnc(Cn2nnc3ccccc32)o1)N(Cc1ccc(F)cc1)c1ccccc1,> 80 µM (inactive)
21,Cc1ccc(C(=O)c2cc([N+](=O)[O-])ccc2N2CCCCC2)cc1,> 80 µM (inactive)
22,Cc1ccc(-n2ncc3c(N4CCN(c5ccccc5)CC4)ncnc32)c(C)c1,4.9 µM
23,CCOC(=O)CC1CCCCN1C(=O)c1cc(COc2cccc3cnccc23)on1 (configuration not stated),6.39 µM
24,O=[N+]([O-])c1ccc(Sc2ccc(Cl)c(Cl)c2)nc1,2.99 µM
25,CC(C)(C)c1ccc(C(=O)O/N=C(\N)c2ccccc2)cc1,2.31 µM

row,Structure (SMILES),IC50
1,COc1ccc(/C=C2/C(=O)OCc3cc(OC)c(OC)cc32)cc1,> 80 µM (inactive)
2,Cc1cc(C)nc(SCC(=O)Nc2ccnc3ccccc23)n1,> 80 µM (inactive)
3,CC(C)Cn1c(N)c(C(=O)CSc2ccc3c(c2)OCCO3)c(=O)n(C)c1=O,< 0.16 µM
4,O=C1C=CC(O)(c2cc(=O)c3c(O)cc(O)cc3o2)C=C1,2.21 µM
5,COc1cc(C(=O)N/N=C/c2cc([N+](=O)[O-])cs2)cc(OC)c1OC,> 80 µM (inactive)
6,COc1ccc(OC)c(-c2nnc3n2N=C(c2ccc(OC)c(OC)c2)CS3)c1,9.88 µM
7,CCc1cc2c(=O)nc3n(c2s1)Cc1ccccc1/C3=C(/O)c1cccc([N+](=O)[O-])c1,> 80 µM (inactive)
8,CC(C)Oc1ccccc1C1CC(=O)Nc2cc3c(cc21)OCCO3 (configuration not stated),> 80 µM (inactive)
9,CC/C=C/CC(=O)N[C@@H](c1ccccc1)[C@@H](O)C(=O)O[C@H]1C[C@@]2(O)[C@@H](OC(=O)c3ccccc3)C3[C@](C)(C(=O)[C@H](OC(C)=O)C(=C1C)C2(C)C)[C@@H](O)C[C@H]1OC[C@@]31OC(C)=O (some centres not stated),> 80 µM (inactive)
10,COC(=O)C1=C(CN2CCCc3ccccc32)NC(=O)NC1c1ccc(F)cc1 (configuration not stated),1.01 µM
11,CC(C)c1ccc(/C=N/Nc2ccc(C(=O)O)cc2)cc1,4.63 µM
12,COC(=O)C(Cc1ccc(N(CCCl)CCCl)cc1)N=Cc1ccccc1O (configuration not stated),0.65 µM
13,CCc1c(C)nc2ncnn2c1NCCc1ccc(OC)cc1,> 80 µM (inactive)
14,COC(=O)c1ccc2nc(Nc3nc4c(F)cc(F)cc4s3)sc2c1,52.9 µM (inactive)
15,CCOc1ccc(Nc2cc(C)nc(-n3nc(C)cc3C)n2)cc1,> 80 µM (inactive)
16,O=C(Nc1ccncc1)c1ccc(Cl)c(S(=O)(=O)N2CCc3ccccc32)c1,> 80 µM (inactive)
17,CC(Oc1ccc(Cl)cc1Cl)C(=O)Nc1ccncc1 (configuration not stated),61.3 µM (inactive)
18,Cc1ncoc1C(=O)NC1CCCc2c1cnn2-c1ccc(C(C)(C)C)cc1 (configuration not stated),> 80 µM (inactive)
19,CCOC(=O)c1[nH]c(C)c(C(=O)Nc2cc(OC)ccc2OC)c1C,> 80 µM (inactive)
20,Cc1ccsc1/C=N/NC(=O)c1cc(-c2ccncc2)nc2ccccc12,35.1 µM (inactive)
21,C=C(C)COc1ccc(-c2n[nH]c(C)c2-c2ccc(OC)c(OC)c2)c(O)c1,21.1 µM (inactive)
22,CCCOC(=O)c1[nH]c2c(c1C)C(=O)CC(c1cccs1)C2 (configuration not stated),32.1 µM (inactive)
